Measurements published in patent publication US20260028354A1, “TETRAHYDRONAPHTHALENE DERIVATIVES AS ESTROGEN RECEPTOR DEGRADERS” (REGENT OF THE UNIVERSITY OF MICHIGAN, priority 2022, published 2026).

Assay: Western blot analysis for "B" compounds
Assay type: cell-based
Conditions: read-out: Traditional Western Degradation Potency (DC50)
How it was run: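 Target protein levels given as relative mean band intensity over GAPDH from scanned immunoblots. Lysates of treated cells in RIPA buffer, equalized by BCA, separated on 10% gels and transferred to PVDF.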

DC50 [nM] | Compound
10 to 100 | O=C1CCC(N2C(=O)c3cc4c(cc3C2=O)CN(C(=O)[C@H]2CC[C@H](CN3CC(Oc5ccc([C@@H]6c7ccc(O)cc7CC[C@@H]6c6ccccc6)cc5)C3)CC2)C4)C(=O)N1 (stereo partly drawn) [Compound B281, 2-(2,6-dioxopiperidin-3-yl)-6-((1R,4r)-4-((3-(4-((1R,2S)-6-hydroxy-2-phenyl-1,2,3,4-tetrahydronaphthalen-1-yl)phenoxy)azetidin-1-yl)methyl)cyclohexane-1-carbonyl)-6,7-dihydropyrrolo[3,4-f]isoindole-1,3(2H,5H)-dione]
> 100 | O=C1CCC(N2C(=O)c3cc4c(cc3C2=O)CN(CC(=O)N2CCC(Oc3ccc([C@@H]5c6ccc(O)cc6CC[C@@H]5c5ccccc5)cc3)CC2)C4)C(=O)N1 (stereo partly drawn) [Compound B284, 2-(2,6-dioxopiperidin-3-yl)-6-(2-(4-(4-((1R,2S)-6-hydroxy-2-phenyl-1,2,3,4-tetrahydronaphthalen-1-yl)phenoxy)piperidin-1-yl)-2-oxoethyl)-6,7-dihydropyrrolo[3,4-f]isoindole-1,3(2H,5H)-dione]
10 to 100 | O=C1CCC(N2C(=O)c3cc4c(cc3C2=O)CN(C2CCN(C(=O)[C@H]3C[C@H](Oc5ccc([C@@H]6c7ccc(O)cc7CC[C@@H]6c6ccccc6)cc5)C3)CC2)C4)C(=O)N1 (stereo partly drawn) [Compound B285, 2-(2,6-dioxopiperidin-3-yl)-6-(1-((1R,3r)-3-(4-((1R,2S)-6-hydroxy-2-phenyl-1,2,3,4-tetrahydronaphthalen-1-yl)phenoxy)cyclobutane-1-carbonyl)piperidin-4-yl)-6,7-dihydropyrrolo[3,4-f]isoindole-1,3(2H,5H)-dione]
> 100 | O=C1CCC(N2C(=O)c3cc4c(cc3C2=O)CN(CC2CCC3(CC2)CCN(C(=O)c2ccc([C@@H]5c6ccc(O)cc6CC[C@@H]5c5ccccc5)cc2)CC3)C4)C(=O)N1 (stereo partly drawn) [Compound B287, 2-(2,6-dioxopiperidin-3-yl)-6-((3-(4-((1R,2S)-6-hydroxy-2-phenyl-1,2,3,4-tetrahydronaphthalen-1-yl)benzoyl)-3-azaspiro[5.5]undecan-9-yl)methyl)-6,7-dihydropyrrolo[3,4-f]isoindole-1,3(2H,5H)-dione]
> 100 | O=C1CCC(N2C(=O)c3cc4c(cc3C2=O)CN(CC2CCC3(CC2)CN(C(=O)c2ccc([C@@H]5c6ccc(O)cc6CC[C@@H]5c5ccccc5)cc2)C3)C4)C(=O)N1 (stereo partly drawn) [Compound B288, 2-(2,6-dioxopiperidin-3-yl)-6-((2-(4-((1R,2S)-6-hydroxy-2-phenyl-1,2,3,4-tetrahydronaphthalen-1-yl)benzoyl)-2-azaspiro[3.5]nonan-7-yl)methyl)-6,7-dihydropyrrolo[3,4-f]isoindole-1,3(2H,5H)-dione]
> 100 | O=C1CCC(N2C(=O)c3cc4c(cc3C2=O)CN(CC2CC3(CCN(C(=O)c5ccc([C@@H]6c7ccc(O)cc7CC[C@@H]6c6ccccc6)cc5)CC3)C2)C4)C(=O)N1 (stereo partly drawn) [Compound B289, 2-(2,6-dioxopiperidin-3-yl)-6-((7-(4-((1R,2S)-6-hydroxy-2-phenyl-1,2,3,4-tetrahydronaphthalen-1-yl)benzoyl)-7-azaspiro[3.5]nonan-2-yl)methyl)-6,7-dihydropyrrolo[3,4-f]isoindole-1,3(2H,5H)-dione]
10 to 100 | O=C1CCC(N2C(=O)c3cc4c(cc3C2=O)CN(C[C@H]2CC[C@H](C(=O)N3CC(Oc5ccc([C@@H]6c7ccc(O)cc7CC[C@@H]6c6ccccc6)cc5)C3)CC2)C4)C(=O)N1 (stereo partly drawn) [Compound B293, 2-(2,6-dioxopiperidin-3-yl)-6-(((1R,4r)-4-(3-(4-((1R,2S)-6-hydroxy-2-phenyl-1,2,3,4-tetrahydronaphthalen-1-yl)phenoxy)azetidine-1-carbonyl)cyclohexyl)methyl)-6,7-dihydropyrrolo[3,4-f]isoindole-1,3(2H,5H)-dione]
< 10 | O=C1CCC(N2Cc3cc4c(cc3C2=O)CN(C[C@H]2CC[C@H](C(=O)N3CC(Oc5ccc([C@@H]6c7ccc(O)cc7CC[C@@H]6c6ccccc6)cc5)C3)CC2)C4)C(=O)N1 (stereo partly drawn) [Compound B294, 3-(6-(((1R,4r)-4-(3-(4-((1R,2S)-6-hydroxy-2-phenyl-1,2,3,4-tetrahydronaphthalen-1-yl)phenoxy)azetidine-1-carbonyl)cyclohexyl)methyl)-1-oxo-3,5,6,7-tetrahydropyrrolo[3,4-f]isoindol-2(1H)-yl)piperidine-2,6-dione]
> 100 | O=C1CCC(N2C(=O)c3cc4c(cc3C2=O)CC2(C4)CN(C(=O)C3CCN(c4ccc([C@@H]5c6ccc(O)cc6CC[C@@H]5c5ccccc5)cc4)CC3)C2)C(=O)N1 (stereo partly drawn) [Compound B297, 2′-(2,6-dioxopiperidin-3-yl)-1-(1-(4-((1R,2S)-6-hydroxy-2-phenyl-1,2,3,4-tetrahydronaphthalen-1-yl)phenyl)piperidine-4-carbonyl)-5′,7′-dihydro-1′H-spiro[azetidine-3,6′-cyclopenta[f]isoindole]-1′,3′(2'H)-dione]
> 100 | O=C1CCC(N2C(=O)c3cc4c(cc3C2=O)CC2(C4)CN(C(=O)CN3CC(Oc4ccc([C@@H]5c6ccc(O)cc6CC[C@@H]5c5ccccc5)cc4)C3)C2)C(=O)N1 (stereo partly drawn) [Compound B299, 2′-(2,6-dioxopiperidin-3-yl)-1-(2-(3-(4-((1R,2S)-6-hydroxy-2-phenyl-1,2,3,4-tetrahydronaphthalen-1-yl)phenoxy)azetidin-1-yl)acetyl)-5′,7′-dihydro-1'H-spiro[azetidine-3,6′-cyclopenta[f]isoindole]-1′,3′(2'H)-dione]

More lines, now with the values behind:

Compound | DC50 [nM]
O=C1CCC(N2C(=O)c3cc4c(cc3C2=O)CN(Cc2ccc(N3CCN(c5ccc([C@@H]6c7ccc(O)cc7CC[C@@H]6c6ccccc6)cc5)CC3)nc2)C4)C(=O)N1 (stereo partly drawn) [Compound B282, 2-(2,6-dioxopiperidin-3-yl)-6-((6-(4-(4-((1R,2S)-6-hydroxy-2-phenyl-1,2,3,4-tetrahydronaphthalen-1-yl)phenyl)piperazin-1-yl)pyridin-3-yl)methyl)-6,7-dihydropyrrolo[3,4-f]isoindole-1,3(2H,5H)-dione] | > 100
CC1(C(=O)N2CCC(N3Cc4cc5c(cc4C3)C(=O)N(C3CCC(=O)NC3=O)C5=O)CC2)CCN(c2ccc([C@@H]3c4ccc(O)cc4CC[C@@H]3c3ccccc3)cc2)CC1 (stereo partly drawn) [Compound B283, 2-(2,6-dioxopiperidin-3-yl)-6-(1-(1-(4-((1R,2S)-6-hydroxy-2-phenyl-1,2,3,4-tetrahydronaphthalen-1-yl)phenyl)-4-methylpiperidine-4-carbonyl)piperidin-4-yl)-6,7-dihydropyrrolo[3,4-f]isoindole-1,3(2H,5H)-dione] | > 100
O=C1CCC(N2Cc3cc4c(cc3C2=O)CN(C(=O)C2CCC(CN3CC(Oc5ccc([C@@H]6c7ccc(O)cc7CC[C@@H]6c6ccccc6)cc5)C3)CC2)C4)C(=O)N1 (stereo partly drawn) [Compound B286, 3-(6-((1R,4r)-4-((3-(4-((1R,2S)-6-hydroxy-2-phenyl-1,2,3,4-tetrahydronaphthalen-1-yl)phenoxy)azetidin-1-yl)methyl)cyclohexane-1-carbonyl)-1-oxo-3,5,6,7-tetrahydropyrrolo[3,4-f]isoindol-2(1H)-yl)piperidine-2,6-dione] | > 100
O=C1CCC(N2C(=O)c3cc4c(cc3C2=O)CN(CC(=O)N2CCC3(CC2)CCN(C(=O)c2ccc([C@@H]5c6ccc(O)cc6CC[C@@H]5c5ccccc5)cc2)CC3)C4)C(=O)N1 (stereo partly drawn) [Compound B290, 2-(2,6-dioxopiperidin-3-yl)-6-(2-(9-(4-((1R,2S)-6-hydroxy-2-phenyl-1,2,3,4-tetrahydronaphthalen-1-yl)benzoyl)-3,9-diazaspiro[5.5]undecan-3-yl)-2-oxoethyl)-6,7-dihydropyrrolo[3,4-f]isoindole-1,3(2H,5H)-dione] | > 100
O=C1CCC(N2C(=O)c3cc4c(cc3C2=O)CN(CC(=O)N2CCC3(CC2)CN(C(=O)c2ccc([C@@H]5c6ccc(O)cc6CC[C@@H]5c5ccccc5)cc2)C3)C4)C(=O)N1 (stereo partly drawn) [Compound B291, 2-(2,6-dioxopiperidin-3-yl)-6-(2-(2-(4-((1R,2S)-6-hydroxy-2-phenyl-1,2,3,4-tetrahydronaphthalen-1-yl)benzoyl)-2,7-diazaspiro[3.5]nonan-7-yl)-2-oxoethyl)-6,7-dihydropyrrolo[3,4-f]isoindole-1,3(2H,5H)-dione] | > 100
O=C1CCC(N2C(=O)c3cc4c(cc3C2=O)CN(C2CC3CCC(C2)N3CC2CCN(c3ccc([C@@H]5c6ccc(O)cc6CC[C@@H]5c5ccccc5)cc3)CC2)C4)C(=O)N1 (stereo partly drawn) [Compound B292, 2-(2,6-dioxopiperidin-3-yl)-6-(8-((1-(4-((1R,2S)-6-hydroxy-2-phenyl-1,2,3,4-tetrahydronaphthalen-1-yl)phenyl)piperidin-4-yl)methyl)-8-azabicyclo[3.2.1]octan-3-yl)-6,7-dihydropyrrolo[3,4-f]isoindole-1,3(2H,5H)-dione] | > 100
O=C1CCC(N2Cc3c(ccc4c3OC[C@H]3CN(C(=O)C5CCN(c6ccc([C@@H]7c8ccc(O)cc8CC[C@@H]7c7ccccc7)cc6)CC5)CCN43)C2=O)C(=O)N1 (stereo partly drawn) [Compound B295, 3-((R)-7-(1-(4-((1R,2S)-6-hydroxy-2-phenyl-1,2,3,4-tetrahydronaphthalen-1-yl)phenyl)piperidine-4-carbonyl)-1-oxo-1,3,5,5a,6,7,8,9-octahydro-2H-pyrazino[1′,2′:4,5][1,4]oxazino[2,3-e]isoindol-2-yl)piperidine-2,6-dione] | > 100
O=C1CCC(N2C(=O)c3cc4c(cc3C2=O)CC2(C4)CN(CC3CCN(c4ccc([C@@H]5c6ccc(O)cc6CC[C@@H]5c5ccccc5)cc4)CC3)C2)C(=O)N1 (stereo partly drawn) [Compound B296, 2′-(2,6-dioxopiperidin-3-yl)-1-((1-(4-((1R,2S)-6-hydroxy-2-phenyl-1,2,3,4-tetrahydronaphthalen-1-yl)phenyl)piperidin-4-yl)methyl)-5′,7′-dihydro-1′H-spiro[azetidine-3,6′-cyclopenta[f]isoindole]-1′,3′(2'H)-dione] | > 100
O=C1CCC(N2Cc3c(ccc4c3OC[C@H]3CN(CC5CCN(c6ccc([C@@H]7c8ccc(O)cc8CC[C@@H]7c7ccccc7)cc6)CC5)CCN43)C2=O)C(=O)N1 (stereo partly drawn) [Compound B298, 3-((R)-7-((1-(4-((1R,2S)-6-hydroxy-2-phenyl-1,2,3,4-tetrahydronaphthalen-1-yl)phenyl)piperidin-4-yl)methyl)-1-oxo-1,3,5,5a,6,7,8,9-octahydro-2H-pyrazino[1′,2′:4,5][1,4]oxazino[2,3-e]isoindol-2-yl)piperidine-2,6-dione] | 10 to 100
